Measured values: patent publication US5583198A, “Amino acids, peptides or derivatives thereof coupled to fats” (Commonwealth Scientific and Industrial Research Organization, priority 1989, dated 1996)

Experiments:
papain = target: T1, papain (Carica papaya, UniProt P00784); assay: Protease treatment with papain (hydrolysis followed by HPLC); format: biochemical; conditions: phosphate buffer pH 6.5, enzyme/substrate 1:50, HPLC monitoring; main product Z-Ala-OH / Z-Gly-OH
T1 construct: purchased Sigma
T1 sequence (P00784 134-345): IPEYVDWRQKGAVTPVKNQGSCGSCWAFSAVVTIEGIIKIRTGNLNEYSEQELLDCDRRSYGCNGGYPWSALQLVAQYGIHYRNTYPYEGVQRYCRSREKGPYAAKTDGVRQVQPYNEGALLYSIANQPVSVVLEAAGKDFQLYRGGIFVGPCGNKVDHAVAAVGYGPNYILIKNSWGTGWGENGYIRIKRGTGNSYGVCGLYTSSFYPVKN
Description: (§1) Z-Gly-TRIS and Z-Ala-TRIS were incubated with papain, and Z-Leu-Arg-TRIS with trypsin, to test that the action of proteolytic enzymes could regenerate the starting compounds Z-Gly-OH, Z-Ala-OH and Z-Leu-Arg-OH respectively.
50 ul of a suspension of papain (25 mg/ml, Sigma) was incubated with 20 mM aqueous solution of EDTA (50 ul); 1 Molar solution of mercaptoethanol (25 ul); 50 mM triethylamine (25 ul); and water (100 ul) at 37° C. for 30 min.
a) Papain. Z-Ala-TRIS in 50 mmolar phosphate buffer pH 6.5 (650 ul), 20 mM ethylene-diamise-tetra-acetic acid (100 ul) and water to 1 ml. Activated papain (5 mg/ml) was added to a final enzyme/substrate ratio of 1:50. The reaction was followed by HPLC on C18 reverse phase columns and the hydrolysis product identified by co-chromatography with standards. Blanks were incubated as above using water instead of enzyme solution.

[1] = test system: RD10 cells (B-cell lymphoma); assay: 3H-thymidine incorporation (mitogenic effect) in RD10 cells; format: cell-based
Description: (§2) ^3 H-thymidine incorporation experiments were carried out in Linbro-Titertek microtitre plates (Flow Laboratories, Inc., U.S.A.) following the method of L. Bradley in "Selected Methods of Cellular Immunology (1980) Eds. B. B. Mishell and S. M. Shiigi; Publisher. W. H. Freeman and Co., U.S.A. pp156. The tests were carried out externally by Dr. D. Rathjen of Peptide Technology Ltd., Dee Why, N.S.W.
1. RD10; a B-cell lymphoma (obtained from the Centre for Immunology, Sydney University, Sydney, NSW.
(§3) RD10 cells (at a cell density 5×10^5 /ml, 100 ul/well) were cultured for 20 hours at 37° C. with 5% CO2 in RPMI 1640 medium, supplemented with 10% Fetal Calf. Serum. Samples to be tested were mixed and sonicated with this medium at a concentration of 5000, 500.50 and 5 ug/ml and 100 ul aliquots added to the cells. The cells were pulsed with 0.5 uCi/well of ^3 H-thymidine and the plates incubated for four more hours before harvesting (Titertek Skatron harvester, Lier, Norway). Incorporated radioactivity was measured by liquid scintillation counting. All assays were performed in triplicate.

[2] = test system: U937 cells (human monocyte-like histiocytic lymphoma); assay: 3H-thymidine incorporation (mitogenic effect) in U937 cells; format: cell-based
Description: as §2
2. U937; a human monocyte-like3 histiocytic lymphoma (source: American Tissue Culture Collection).
as §3

TPCK trypsin = target: T2, TPCK trypsin (Bos taurus, UniProt P00760); assay: Protease treatment with trypsin (hydrolysis followed by HPLC); format: biochemical; conditions: 0.2M ammonium hydrogen carbonate, 37° C., enzyme/substrate 1:50; product Z-Leu-Arg-OH
T2 sequence (P00760 24-246): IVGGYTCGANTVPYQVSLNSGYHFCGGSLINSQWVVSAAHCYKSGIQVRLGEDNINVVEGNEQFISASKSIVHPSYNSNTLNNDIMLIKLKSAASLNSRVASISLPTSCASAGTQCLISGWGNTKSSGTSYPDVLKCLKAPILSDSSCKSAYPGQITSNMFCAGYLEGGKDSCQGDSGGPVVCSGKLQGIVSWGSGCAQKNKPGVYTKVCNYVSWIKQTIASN
Description: as §1
b) Trypsin. Z-Leu-Arg-TRIS was incubated at a concentration between 2 and 10 mg/ml in 0.2M ammonium hydrogen carbonate. Freshly prepared TPCK trypsin (1 mg/ml in water) was added to the solution giving a final enzyme/substrate ratio of 1:50. Samples were incubated at 37° C. and aliquots examined by reverse phase HPLC. Additional amounts of enzyme were added as required.

[3] = test system: RD10 cells (B-cell lymphoma); conditions: under these conditions; cited from earlier work

## CC(NC(=O)OCc1ccccc1)C(=O)NC(CO)(CO)CO (stereo not drawn) [Z-Ala-TRIS]
papain
  enzymatic hydrolysis by papain: hydrolysed by papain, albeit very slowly

## CCCCCCCCCCCCCCCC(=O)OCC(COC(=O)CCCCCCCCCCCCCCC)(COC(=O)CCCCCCCCCCCCCCC)NC(=O)C(C)N (stereo not drawn) [Ala-TRIS-Tripalmitate]
[1]
  3H-thymidine uptake response compared with Z-Ala-TRIS-Tripalmitate: slightly diminished response
[2]
  Thymidine incorporation: slightly diminished responses

## CCCCCCCCCCCCCCCC(=O)OCC(COC(=O)CCCCCCCCCCCCCCC)(COC(=O)CCCCCCCCCCCCCCC)NC(=O)C(C)NC(=O)OCc1ccccc1 (stereo not drawn) [Z-Ala-TRIS-Tripalmitate, Z-Ala-TRIS-TRIPALMITATE]
[1]; 20 hours culture, 4 hours pulse
  3H-thymidine uptake: increase in cell proliferation compared to control: 3-4 fold
[2]
  Thymidine incorporation: close to control
[2]; at higher concentrations
  cytotoxic effects: slight cytotoxic effects

## CC(C)C[C@H](NC(=O)OCc1ccccc1)C(=O)N[C@@H](CCCNC(=N)N)C(=O)NC(CO)(CO)CO [Z-Leu-Arg-TRIS]
TPCK trypsin
  enzymatic hydrolysis by trypsin: hydrolyzed slowly

## phytohaemagglutinin
[3]
  3H-thymidine uptake: increase in cell proliferation (known mitogen, for comparison): 5-10 fold

## O=C(CNC(=O)OCc1ccccc1)NC(CO)(CO)CO [Z-Gly-TRIS]
papain
  enzymatic hydrolysis by papain: hydrolysed by papain, albeit very slowly
